These results are taken from US8124775B2, “Chemical compound and its use” (Bayer Pharma Aktiengesellschaft, priority 2004, dated 2012).

The term IC50 denotes the point on the concentration scale where inhibition reaches its midpoint. High values mean weaker potency, low ones greater potency.

Test [1] has as its target T1, CETP (Homo sapiens, UniProt P11597).
T1 sequence (P11597 18-493): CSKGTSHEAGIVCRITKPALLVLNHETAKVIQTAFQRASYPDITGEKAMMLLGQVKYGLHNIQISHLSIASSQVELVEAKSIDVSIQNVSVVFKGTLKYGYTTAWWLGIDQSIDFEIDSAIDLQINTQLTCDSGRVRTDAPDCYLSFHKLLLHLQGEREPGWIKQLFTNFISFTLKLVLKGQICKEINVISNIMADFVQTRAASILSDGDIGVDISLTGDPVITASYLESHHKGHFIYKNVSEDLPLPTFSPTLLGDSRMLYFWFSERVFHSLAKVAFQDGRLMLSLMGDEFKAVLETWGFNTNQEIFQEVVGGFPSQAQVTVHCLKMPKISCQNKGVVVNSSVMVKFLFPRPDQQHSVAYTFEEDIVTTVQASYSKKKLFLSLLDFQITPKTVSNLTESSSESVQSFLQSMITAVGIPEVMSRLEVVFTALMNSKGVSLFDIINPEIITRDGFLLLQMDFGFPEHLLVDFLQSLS
The experiment in a line: CETP-SPA test. To be noted: section (b), Example 1 = formula (Ib); 37° C., 18 h. On the set-up: are added to 42 μl (86% v/v) of human plasma (Sigma P9523); tissue Sigma P9523; host or cells: human plasma. It is filed as biochemical.
Protocol: 50 ml of fresh human EDTA plasma is adjusted to a density of 1.12 using NaBr and centrifuged at 4° C. in a Ty 65 rotor at 50 000 rpm for 18 h. The upper phase is used for the obtainment of cold LDL. […]
For testing of the CETP activity, the transfer of ^3H-cholesterol ester from human HD lipoproteins to biotinylated LD lipoproteins is measured. The reaction is ended by addition of streptavidin-SPA® beads (Amersham) and the transferred radioactivity is determined directly in a liquid scintillation counter. […]

In test [2] the target is T1, CETP. Nature of the test: Ex vivo activity on transgenic hCETP mice (serum CETP activity). The test is classed as in vivo. The arrangement: from tissue; host or cells: serum of transgenic hCETP mice (Dinchuk et al.). To be noted: mouse, po. On the procedure: 10 μl of buffer and 2 μl of serum are added to 80 μl of test mix, and the mixture is incubated at 37° C. for 4 h.
The change in the fluorescence at 485/535 nm is a measure for the CE transfer; the inhibition of the transfer is comparison to the control batch without substance is determined.
To test for CETP-inhibitory activity, the substances are administered orally using a stomach tube to transgenic hCETP mice bred in-house [Dinchuk et al. BBA 1295-301 (1995)]. To this end, male animals are randomly assigned to groups having an equal number of animals, as a rule n=4, one day before the start of the experiment. Before administration of the substance, blood is taken from each mouse by puncture of the retro-orbital venous plexus for the determination of its basal CETP activity in the serum (T1). The test substance is then administered to the animals using the stomach tube. At specific times after administration of the test substance, blood is taken from the animals by puncture a second time (T2), in general 16 or 24 h after substance administration, but if appropriate this can also be carried out at another time.
In order to be able to assess the inhibitory activity of a substance, for each time, i.e. 16 or 24 hours, a corresponding control group is employed whose animals only receive the formulating agent without substance. In the control animals, the second blood sampling per animal is carried out as in the substance-treated animals in order to be able to determine the change in the CETP activity without inhibitor over the corresponding experimental time interval (16 or 24 h).
After termination of the clotting, the blood samples are centrifuged and the serum is removed by pipette. For the determination of the CETP activity, the cholesteryl ester transport over 4 h is determined. To this end, in general 2 μl of serum are employed in the test batch and the test is carried out as described under B-I.2.3.
The differences in the cholesteryl ester transport [pM CE/h (T2)−pM CE/h (T1)] are calculated for each animal and averaged in the groups. A substance which at one of the times reduces the cholesteryl ester transport by >20% is regarded as active.
The change in the fluorescence at 485/535 nm is a measure for the CE transfer; the inhibition of the transfer in comparison to the control batch without substance is determined.
To test for CETP-inhibitory activity, the substances are administered orally using a stomach tube to transgenic hCETP mice bred in-house [Dinchuk et al., BBA, 1295-1301 (1995)]. To this end, male animals are randomly assigned to groups having an equal number of animals, as a rule n=4, one day before the start of the experiment. […]

In test [3] the target is T1, CETP. The experiment in a line: CETP fluorescence test with enriched CETP. The test is classed as biochemical. The arrangement: tissue Sigma P9523; host or cells: human plasma. The settings on record: section (b), Example 1 = formula (Ib); enriched CETP from human plasma, 37° C., 4 hours. On the procedure: CETP is obtained in partially purified form from human plasma by differential centrifugation and column chromatography and used for the test. To this end, human plasma is adjusted to a density of 1.21 g per ml using NaBr and centrifuged at 4° C. at 50 000 rpm for 18 h. The bottom fraction (d>1.21 g/ml) is applied to a Sephadex® Phenyl-Sepharose 4B (Pharmacia) column, washed with 0.15 M NaCl/0.001 M tris-HCl pH 7.4 and then eluted with distilled water. The CETP-active fractions are pooled, dialysed against 50 mM sodium acetate pH 4.5 and applied to a CM-Sepharose® column (Pharmacia). The mixture is then eluted using a linear gradient (0-1 M NaCl). The pooled CETP fractions are dialysed against 10 mM tris/HCl pH 7.4 and then further purified by chromatography on a Mono Q® column (Pharmacia).
Measurement of the CETP-catalysed transfer of a fluorescent cholesterol ester between liposomes [modified according to the procedure of Bisgaier et al., J. Lipid Res. 34, 1625 (1993)]: […]
The change in the fluorescence at 485/535 nm is a measure of the CE transfer; the inhibition of the transfer in comparison to the control batch without substance is determined. […]

For test [4], the target named is T1, CETP. The experiment in a line: CETP fluorescence test with human plasma. The test is classed as biochemical. On the set-up: tissue Sigma P9523; host or cells: human plasma. The settings on record: section (b), Example 1 = formula (Ib), 37° C., 24 h. On the procedure: For the production of the donor liposomes, 1 mg of cholesteryl 4,4-difluoro-5,7-dimethyl-4-bora-3a,4a-diaza-s-indacene-3-dodecanoate (cholesteryl BODIPY® FL C12, Molecular Probes) is dissolved in 600 μl of dioxane with 5.35 mg of triolein and 6.67 mg of phosphatidylcholine with gentle warming in an ultrasonic bath and this solution is added very slowly with ultrasonication to 63 ml of 50 mM tris/HCl, 150 mM NaCl, 2 mM EDTA buffer pH 7.3 at room temperature. The suspension is then ultrasonicated under an N2 atmosphere for 30 minutes in the Branson ultrasonic bath at about 50 watts, the temperature being kept at about 20° C.
6 μl (12% v/v) of donor liposomes and 1 μl (2% v/v) of a solution of the substance to be investigated in DMSO are added to 42 μl (86% v/v) of human plasma (Sigma P9523), and the mixture is incubated at 37° C. for 24 h.
The change in the fluorescence at 510/520 nm (gap width 2.5 nm) is a measure of the CE transfer; the inhibition of the transfer in comparison to the control batch without substance is determined. […]

Where two headings read alike, the source gives them in different places.

At CETP [1], `CC1(C)Cc2nc(C3CCCC3)c([C@@H](F)c3ccc(C(F)(F)F)cc3)c(C3CCCCC3)c2[C@@H](O)C1` [Example 1] had an IC50 of 12 nM. The inhibition at 3 mg/kg at CETP [2] (section (a), Example 1 = formula (Ia), 16 h after administration, read-out: % inhibition at 3 mg/kg, 16 h) is 50%; on CETP [2] (section (a), Example 1 = formula (Ia), 24 h after administration, read-out: % inhibition at 3 mg/kg, 24 h) it was 24%; on CETP [2] (section (b), Example 1 = formula (Ib), 16 h after administration, read-out: % inhibition at 3 mg/kg, 16 h), 49%; on CETP [2] (section (b), Example 1 = formula (Ib), 24 h after administration, read-out: % inhibition at 3 mg/kg, 24 h), 39%.

With `CC(C)c1nc2c(c(C3CCCC3)c1[C@@H](F)c1ccc(C(F)(F)F)cc1)[C@@H](O)CC(C)(C)C2` [Example 1], the IC50 on CETP [3] stood at 25 nM; against CETP [4], 84 nM.
